Values joined by “and” are separate entries in the source; they are usually repeats but may differ in a detail not shown here. Equal entries are not always repeated. “Also recorded” adds a separate entry of the source. Where two headings read alike, the source gives them in different places. Values belong to the molecule of their own block, whether it stands above or below them.
Columns and labels:
MBP = assay: DSF thermal shift control with MBP; format: binding; conditions: 0.5 mM PAPS, 10 μM heparin or 5 mM maltose; result in words
HS2ST [1] = target: T1, HS2ST (Gallus gallus, UniProt Q76KB1); assay: DSF thermal shift/stability assay of MBP-HS2ST; format: binding, Chicken; conditions: 5 μM MBP-HS2ST; for thermal stabilisation of HS2ST (DSF): result in words
T1 construct: made in house; host or cells: Escherichia coli Rosetta-gami (DE3), modified pMAL-c2x plasmid
T1 sequence (Q76KB1 69-356): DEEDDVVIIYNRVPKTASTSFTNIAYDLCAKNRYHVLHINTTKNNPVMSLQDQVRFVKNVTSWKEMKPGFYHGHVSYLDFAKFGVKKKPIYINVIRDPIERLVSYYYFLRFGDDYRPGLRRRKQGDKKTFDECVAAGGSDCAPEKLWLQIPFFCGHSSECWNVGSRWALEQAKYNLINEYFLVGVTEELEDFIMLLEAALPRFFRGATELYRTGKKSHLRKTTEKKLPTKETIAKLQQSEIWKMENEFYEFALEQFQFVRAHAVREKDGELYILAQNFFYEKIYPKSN

HS2ST [2] = target: T1, HS2ST; assay: Microfluidic mobility shift sulfation assay with fluorescent hexasaccharide substrate; format: biochemical, Chicken; conditions: for mode of HS2ST inhibition: increasing concentration of PAPS, 10 μM PAP, 0.5 mM CoA or 20 μM rottlerin; for HS2ST inhibition (dose-response): 1 μM PAPS, 15 min at 20°C (Figure 4C); for HS2ST inhibition: concentrations as high as 400 μM (Supplementary Figure S9B)
Description: (§1) N-sulfated, fluorescein-tagged hexasaccharide glycan substrate (GlcNS–GlcA–GlcNS–IdoA–GlcNS–GlcA-fluorescein, where S = sulfation) containing either L-IdoA or D-GlcA residues at the third residue from the reducing end (to which a linker and the fluorophore were conjugated) was both purchased from GLYCAN therapeutics (www.glycantherapeutics.com). […] Chemically modified heparins were generated through a published procedure, whereas oligosaccharides from Iduron were generated enzymatically. Non-radioactive microfluidic mobility shift carbohydrate sulfation assays were optimised in solution with a 12-sipper chip coated with CR8 reagent and a PerkinElmer EZ Reader II system using EDTA-based separation buffer and real-time kinetic evaluation of substrate sulfation. Pressure and voltage settings were adjusted manually to afford optimal separation of the sulfated product and non-sulfated hexasaccharide substrate, with a sample (sip) volume of 20 nl, and total assay times appropriate for the experiment. […] The degree of oligosaccharide sulfation was directly calculated using the EZ Reader software by measuring the sulfo oligosaccharide : oligosaccharide ratio at each time-point. The activity of HS2ST enzymes in the presence of biochemicals and small-molecule inhibitors was quantified in ‘kinetic mode’ by monitoring the amount of sulfated glycan generated over the assay time, relative to control assay with no additional inhibitor molecule (DMSO control). […] Km and IC50 values were determined by nonlinear regression analysis with GraphPad Prism software.
The PKIS chemical library (Supplementary Figure S6, designated as SB, GSK or GW compound sets) comprises 367 largely ATP-competitive kinase inhibitors, covering 31 chemotypes originally designed to inhibit 24 distinct protein kinase targets. Compounds were stored frozen as a 10 mM stock in DMSO. The library is characterised as highly drug-like (∼70% with molecular mass <500 Da and clogP values <5). […] For inhibition assays, competition assays or individual IC50 value determination, a compound range was prepared by serial dilution in DMSO and added directly into the assay to the appropriate final concentration. All control experiments contained 4% (v/v) DMSO, which had essentially no effect on HS2ST activity. Individual chemicals and glycan derivatives were prepared and evaluated using NMR, HPLC, DSF or microfluidics-based assay protocols, as described above.

HS2ST [3] = conditions: read-out: Km for PAPS; HS2ST using desulfated heparin as a substrate; cited from earlier work
[4] = test system: catalytic subunit of cAMP-dependent protein kinase (PKAc); assay: DSF thermal shift of recombinant PKAc; format: binding; conditions: 5 μM PKAc
tyrosyl sulfotransferase = conditions: read-out: Km for PAPS; tissue-purified tyrosyl sulfotransferase; cited from earlier work
[5] = test system: hormone iodotyrosine sulfotransferases; conditions: read-out: Km for PAPS; human hormone iodotyrosine sulfotransferases; cited from earlier work
[6] = test system: GlcNAc-6-sulfotransferase NodH; conditions: read-out: Km for PAPS; PAPS-dependent GlcNAc-6-sulfotransferase NodH; cited from earlier work
[7] = substrate: Nc1ncnc2c1ncn2C1OC(COP(=O)(O)OS(=O)(=O)O)C(OP(=O)(O)O)C1O; assay: Microfluidic mobility shift sulfation assay with fluorescent hexasaccharide substrate; format: biochemical, Chicken; conditions: other: 20 nM HS2ST, fluorescein-labelled IdoA hexasaccharide substrate; pH 7.4
Description: as §1, with “sulfation.” for “sulfation. Pressure and voltage settings were adjusted manually to afford optimal separation of the sulfated product and non-sulfated hexasaccharide substrate, with a sample (sip) volume of 20 nl, and total assay times appropriate for the experiment.”, “software. […]” for “software.”

[8] = nucleotides, 20 nM HS2ST, 10 μM PAPS, absence of MgCl2, 15 min, read-out: IC50
[9] = 20 nM HS2ST, 10 μM PAPS (Figure 3D), read-out: IC50
[10] = positive controls of the PKIS enzyme re-screen (Figure 4B, Supplementary Figures 7 and 8), read-out: IC50

Molecule: OC[C@H]1O[C@H](O[C@H]2[C@H](O)[C@@H](O)C(O)O[C@@H]2CO)[C@H](O)[C@@H](O)[C@@H]1O (mixture of isomers) [maltose]
- thermal stabilisation of MBP (DSF) (MBP): characteristic stabilisation profile

Molecule: Nc1ncnc2c1ncn2[C@@H]1O[C@H](COP(=O)(O)OP(=O)(O)O)[C@@H](O)[C@H]1O [ADP, adenosine 5′-diphosphate]
- thermal stabilisation of HS2ST (DSF) (HS2ST [1]): effective at protecting HS2ST from thermal denaturation

- thermal stabilisation of HS2ST (DSF) (HS2ST [1]): not
Molecule: Nc1ncnc2c1ncn2[C@@H]1O[C@H](COP(=O)(O)O)[C@@H](O)[C@H]1O [AMP, adenosine 5′-monophosphate]

- IC50 (HS2ST [2]; [8]): 466000 nM
Molecule: Nc1ncnc2c1ncn2[C@@H]1O[C@H](COP(=O)(O)OP(=O)(O)OP(=O)(O)O)[C@@H](O)[C@H]1O [ATP, adenosine 5′-triphosphate]

- mode of HS2ST inhibition (HS2ST [2]): PAPS-competitive mode of inhibition
- IC50 (HS2ST [2]; [8]): 65000 nM
- thermal stabilisation of HS2ST (DSF) (HS2ST [1]): clearly induced thermal stabilisation
Molecule: CC(C)(COP(=O)(O)OP(=O)(O)OC[C@H]1O[C@@H](n2cnc3c(N)ncnc32)[C@H](O)[C@@H]1OP(=O)(O)O)[C@@H](O)C(=O)NCCC(=O)NCCS [CoA, coenzyme A]

Molecule: Nc1nc2c(ncn2[C@@H]2O[C@H](COP(=O)(O)OP(=O)(O)OP(=O)(O)O)[C@@H](O)[C@H]2O)c(=O)[nH]1 [GTP, guanosine 5′-triphosphate]
- thermal stabilisation of HS2ST (DSF) (HS2ST [1]): effective at protecting HS2ST from thermal denaturation

Molecule: O=C1Nc2ccc(I)cc2C1=Cc1cc(Br)c(O)c(Br)c1 [GW305074]
- HS2ST inhibition (dose-response) (HS2ST [2]; 20 nM HS2ST, result in words): mid-micromolar HS2ST inhibitor

Molecule: COC(=O)c1ccc2c(c1)C(=Cc1cc(Br)c(O)c(Br)c1)C(=O)N2 [GW405841X]
- HS2ST inhibition (dose-response) (HS2ST [2]; 20 nM HS2ST, result in words): did not inhibit HS2ST at any concentration tested

- HS2ST enzyme activity (HS2ST [2]; high (>1 mM) concentrations of Mg2+ ions, relative to buffer controls, result in words): concentration-dependent increases
- ΔTm (HS2ST [1]; DSF): ~3 °C
Molecule: [Mg+2] [Mg^2+]

- mode of HS2ST inhibition (HS2ST [2]): PAPS-competitive mode of inhibition
- IC50 (HS2ST [2]; [8]): ~2000 nM
- thermal stabilisation of HS2ST (DSF) (HS2ST [1]): did not abrogate HS2ST binding
Molecule: Nc1ncnc2c1ncn2C1OC(COP(=O)(O)O)C(OP(=O)(O)O)C1O (stereo not drawn) [PAP, adenosine 3′–5′-diphosphate]

Molecule: Nc1ncnc2c1ncn2C1OC(COP(=O)(O)OS(=O)(=O)O)C(OP(=O)(O)O)C1O (stereo not drawn) [PAPS, adenosine 3′-phosphate 5′-phosphosulfate]
- Km (HS2ST [3]): 18.5 µM
- thermal stabilisation of PKAc (DSF) ([4]; 0.5 mM PAPS, result in words): did not stabilise
- Km (tyrosyl sulfotransferase): 10 µM
- thermal stabilisation of MBP (DSF) (MBP): neither PAPS nor heparin induced stabilisation
- Km [5]: 1.5 µM
- Km [6]: ~4.3 µM
- thermal stabilisation of HS2ST (DSF) (HS2ST [1]): positively shifted (stabilised); also recorded: dose-dependent stabilisation

- thermal stabilisation of HS2ST (DSF) (HS2ST [1]): clearly induced thermal stabilisation
Molecule: CC(=O)SCCNC(=O)CCNC(=O)[C@H](O)C(C)(C)COP(=O)(O)OP(=O)(O)OC[C@H]1O[C@@H](n2cnc3c(N)ncnc32)[C@H](O)[C@@H]1OP(=O)(O)O [acetyl CoA]

- IC50 (HS2ST [2]; [9]): 123 ± 7 nM
- IC50 (HS2ST [2]; [10]): ~90 nM
Molecule: O=C(O)C1=CC(=C(c2ccc(O)c(C(=O)O)c2)c2ccc(O)c(C(=O)O)c2)C=CC1=O [aurintricarboxylate, aurintricarboxylic acid]

- HS2ST inhibition (HS2ST [2]; result in words): unable to inhibit HS2ST
Molecule: CC(C)(C)c1nc(-c2cccc(NS(=O)(=O)c3c(F)cccc3F)c2F)c(-c2ccnc(N)n2)s1 [dabrafenib]

- thermal stabilisation of HS2ST (DSF) (HS2ST [1]): abolished this effect
Molecule: CC(C)(COP(=O)(O)OP(=O)(O)OC[C@H]1O[C@@H](n2cnc3c(N)ncnc32)[C@H](O)[C@@H]1O)[C@@H](O)C(=O)NCCC(=O)NCCS [dephospho-CoA, 3′-dephosphoCoA]

Molecule: CC(=O)c1c(O)c(C)c(O)c(Cc2c(O)c3c(c(C(=O)/C=C/c4ccccc4)c2O)OC(C)(C)C=C3)c1O [rottlerin]
- IC50 (HS2ST [2]; IC50, 20 nM HS2ST, 10 μM PAPS (Figure 3D)): 6400 nM
- IC50 (HS2ST [2]; IC50, positive control of the PKIS enzyme re-screen (Figure 4B, Supplementary Figures 7 and 8)): ~8000 nM
- mode of HS2ST inhibition (HS2ST [2]): competitive mode of HS2ST inhibition

Molecule: CN[C@@H]1C[C@H]2O[C@@](C)([C@@H]1OC)n1c3ccccc3c3c4c(c5c6ccccc6n2c5c31)C(=O)NC4 [staurosporine]
- thermal stabilisation of HS2ST (DSF) (HS2ST [1]): neither the pan-kinase inhibitor staurosporine nor several FDA-approved tyrosine kinase inhibitors caused thermal stabilisation

- IC50 (HS2ST [2]; [9]): 40 ± 1 nM
- IC50 (HS2ST [2]; [10]): ~20 nM
Molecule: Cc1ccc(C(=O)Nc2ccc(S(=O)(=O)O)c3cc(S(=O)(=O)O)cc(S(=O)(=O)O)c23)cc1NC(=O)c1cccc(NC(=O)Nc2cccc(C(=O)Nc3cc(C(=O)Nc4ccc(S(=O)(=O)O)c5cc(S(=O)(=O)O)cc(S(=O)(=O)O)c45)ccc3C)c2)c1 [suramin]

- HS2ST inhibition (HS2ST [2]; result in words): unable to inhibit HS2ST
Molecule: CCCS(=O)(=O)Nc1ccc(F)c(C(=O)c2c[nH]c3ncc(-c4ccc(Cl)cc4)cc23)c1F [vemurafenib]

- ΔTm ([4]; 0.5 mM ATP and 10 mM MgCl2): > 4 °C
Molecule: Mg-ATP

B1: HS2ST (Gallus gallus) (protein)
chain: DEEDDVVIIYNRVPKTASTSFTNIAYDLCAKNRYHVLHINTTKNNPVMSLQDQVRFVKNVTSWKEMKPGFYHGHVSYLDFAKFGVKKKPIYINVIRDPIERLVSYYYFLRFGDDYRPGLRRRKQGDKKTFDECVAAGGSDCAPEKLWLQIPFFCGHSSECWNVGSRWALEQAKYNLINEYFLVGVTEELEDFIMLLEAALPRFFRGATELYRTGKKSHLRKTTEKKLPTKETIAKLQQSEIWKMENEFYEFALEQFQFVRAHAVREKDGELYILAQNFFYEKIYPKSN
notes: made in house; host or cells: Escherichia coli Rosetta-gami (DE3), modified pMAL-c2x plasmid
- Km [7]: 1.03 ± 0.2 µM and 1 µM and 1.0 µM
